Source: publication PMC11460631, “Inhibition of transient receptor potential vanilloid 3 channels by antimalarial hydroxychloroquine alleviates TRPV3-dependent dermatitis” (The Journal of Biological Chemistry, 2024)

Target: T1, TRPV3 L591A mutant (Homo sapiens, UniProt Q8NET8, L591A)
T1 construct: YFP or GFP; expressed in transfected cells; host or cells: HEK293T
T1 sequence (Q8NET8 1-790 L591A): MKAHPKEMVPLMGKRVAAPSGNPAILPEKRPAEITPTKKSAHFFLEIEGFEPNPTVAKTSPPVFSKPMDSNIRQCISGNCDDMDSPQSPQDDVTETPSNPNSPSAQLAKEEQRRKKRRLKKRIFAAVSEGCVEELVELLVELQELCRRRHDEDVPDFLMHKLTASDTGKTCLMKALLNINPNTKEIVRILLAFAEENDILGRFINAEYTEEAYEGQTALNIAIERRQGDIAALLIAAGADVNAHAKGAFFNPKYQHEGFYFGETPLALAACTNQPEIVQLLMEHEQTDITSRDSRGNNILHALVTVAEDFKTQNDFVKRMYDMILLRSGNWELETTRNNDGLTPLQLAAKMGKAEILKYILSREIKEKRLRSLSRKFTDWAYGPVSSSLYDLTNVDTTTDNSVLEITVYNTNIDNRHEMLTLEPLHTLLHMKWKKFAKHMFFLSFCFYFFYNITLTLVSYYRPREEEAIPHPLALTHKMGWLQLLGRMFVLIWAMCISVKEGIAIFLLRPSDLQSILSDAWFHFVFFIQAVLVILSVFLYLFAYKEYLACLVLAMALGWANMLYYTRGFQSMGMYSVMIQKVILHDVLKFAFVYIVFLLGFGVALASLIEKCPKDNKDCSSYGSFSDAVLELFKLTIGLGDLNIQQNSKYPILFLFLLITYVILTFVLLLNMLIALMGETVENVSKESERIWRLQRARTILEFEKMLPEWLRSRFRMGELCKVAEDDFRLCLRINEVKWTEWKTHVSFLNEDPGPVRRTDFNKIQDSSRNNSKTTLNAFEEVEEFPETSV
Test: Whole-cell recording of TRPV3 L591A mutant
Format: cell-based
Excerpt: As we mentioned above, HCQ may act as a pore blocker of TRPV3. To probe the binding configuration of HCQ to TRPV3, we carried out molecular docking using Rosetta suite (https://rosettacommons.org) ([21]) and validated the docking models with point mutations in TRPV3 (Fig. 4A). […] Furthermore, when we introduced L670A to L591A mutant, we also observed a left shift on the concentration–response curve on this double mutant as compared to L591A mutant (Fig. 4H).
Figure 4 Residues of the pore domain are critical for HCQ inhibition on TRPV3.A, left panel, docking model of HCQ to the pore domain of TRPV3 structure (6uw4). Right panels, top view and side view of the HCQ-binding pocket. B-J, representative whole-cell recording of TRPV3 and mutants in response to 1 mM 2-APB, the mixture of 1 mM 2-APB and concentration gradients of HCQ with the holding potential of ± 80 mV. K, concentration–response curves of HCQ in WT TRPV3 and mutants (n = 3–5 cells). L, quantification of the inhibitory ratio of HCQ (100 μM) on WT, L591A, and N671Q. […]
All data from whole-cell recordings were analyzed in Igor Pro (WaveMetrics). IC50 values were determined by fitting the Hill equation to concentration-response relationships. […]

inhibition at 100 µM (100 μM HCQ): 28.4% | IC50 (1 mM 2-APB, ± 80 mV): 203 ± 10.8 µM
Structure (SMILES): CCN(CCO)CCCC(C)Nc1ccnc2cc(Cl)ccc12 (centres unmarked) [HCQ, hydroxychloroquine]
